Source: PubChem BioAssay (NCI)
Where “and” joins values, the source holds several entries; their conditions need not be identical. Equal values may be shown once.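 A five-concentration, 48-hour dose response in 96-well plates underlies each endpoint, interpolated linearly between surrounding concentrations. At the GI50, growth is halved. TGI: concentration producing complete growth inhibition.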 Where a SMILES comes first, the peptide text is derived from it. The star is where a group is joined. Cbz = O=C(OCc1ccccc1)*; Boc = CC(C)(C)OC(=O)*; OSu = O=C1CCC(=O)N1O*; Bn = c1ccc(C*)cc1

Legend:
Assay in all cases: NCI tumour cell line growth inhibition, 48 h
[1] = tested on: LOX IMVI melanoma
[2] = tested on: NCI-H460 lung
[3] = tested on: SF-295 CNS
[4] = tested on: KM12 colon
[5] = tested on: HT29 colon
[6] = tested on: A498 renal
[7] = tested on: SK-MEL-5 melanoma
[8] = tested on: COLO 205 colon
[9] = tested on: MDA-MB-435
[10] = tested on: NCI-H522 lung
[11] = tested on: NCI/ADR-RES ovarian
[12] = tested on: MDA-N

| Compound | TGI [1] | TGI [2] | TGI [3] | TGI [4] | TGI [5] | TGI [6] | TGI [7] | TGI [8] | TGI [9] | TGI [10] | TGI [11] | TGI [12] | GI50 [1] | GI50 [2] | GI50 [4] | GI50 [9] | GI50 [10] | GI50 [12] | GI50 [7] | GI50 [8] |
| --- | --- | --- | --- | --- | --- | --- | --- | --- | --- | --- | --- | --- | --- | --- | --- | --- | --- | --- | --- | --- |
| CC(C)=CC(=O)c1c(C(=O)O)nc2ccccc2[n+]1[O-] | > 100 µM | > 100 µM | > 100 µM | > 100 µM | > 100 µM | > 100 µM | > 100 µM | > 100 µM | – | – | – | – | – | – | – | – | – | – | – | – |
| O=c1c2cc(I)ccc2nc(-c2cccs2)n1O | 80.4 µM | > 100 µM | > 100 µM | > 100 µM | > 100 µM | – | > 100 µM | > 100 µM | > 100 µM | > 100 µM | > 100 µM | > 100 µM | – | – | – | – | – | – | – | – |
| Cc1ccc(NCCN(C)C)c2c(=O)c3cc(O)ccc3sc12 | 7.84 µM | 5.72 µM | 18.4 µM | 11.4 µM | 8.2 µM | 21.9 µM | 9.88 µM | 23.2 µM | 2.94 µM | 11.1 µM | – | 4.58 µM | – | – | – | – | – | – | – | – |
| CC(C)=CCCC1(C)C2COC(=O)C21 (stereo not drawn) | > 100 µM and 34.7 µM | > 100 µM and 34.1 µM | > 100 µM | > 100 µM | > 100 µM | > 100 µM | > 100 µM and 34.6 µM | > 100 µM | > 100 µM | > 100 µM | – | > 100 µM | 38.8 µM and 19 µM | > 100 µM and 19.3 µM | > 100 µM and 42.1 µM | > 100 µM and 43.6 µM | > 100 µM and 47.2 µM | > 100 µM and 31.7 µM | > 100 µM and 17.5 µM | > 100 µM and 34.2 µM |
| CC(C)(C)OC(=O)NC(Cc1ccc(OCc2ccccc2)cc1)C(=O)NC(CCCCNC(=O)OCc1ccccc1)C(=O)NC(CCCCNC(=O)OCc1ccccc1)C(=O)ON1C(=O)CCC1=O (stereo not drawn) (Boc-Tyr(Bn)-Lys(Cbz)-Lys(Cbz)-OSu; configuration not given here) | – | > 100 µM | 72.1 µM | > 100 µM | > 100 µM | – | > 100 µM | > 100 µM | > 100 µM | 39.7 µM | > 100 µM | 45.4 µM | – | – | – | – | – | – | – | – |
| C/C(Nc1ccc(Cl)cc1)=C1/CCOC1=O | – | > 100 µM | > 100 µM | > 100 µM | > 100 µM | > 100 µM | – | – | > 100 µM | > 100 µM | > 100 µM | > 100 µM | – | – | – | – | – | – | – | – |
| CCCCCCCCCCCCC1N=C(N)NC2(CCCO2)C1C(=O)OC (stereo not drawn) | – | 8.23 µM | 24.7 µM | 3.34 µM | 3.48 µM | 47.7 µM | 23.7 µM | 10.9 µM | 15.6 µM | 9.7 µM | 42.9 µM | – | – | – | – | – | – | – | – | – |
